In patent US20060063784A1, “Method of using substituted pyrazolo [1,5-a] pyrimidines” (priority 2004, published 2006):
Like-named read-outs stand apart in the source and are kept apart here.

Legend:
[1] = system: LoVo Colon cell line; assay: Cytotoxicity assay using LoVo colon cell line, SRB; assay type: cell-based; details: read-out: Inhibition of LoVo
How it was run: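 LoVo cells (4000/well, RPMI 1640 with 10% FBS, 37 °C, 7% CO2) seeded overnight, then exposed 4 days to serial dilutions spanning 5 pM-20 μM or 170 pg/ml-10 μg/ml. Survival by SRB staining; IC50 from curves relative to untreated controls.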

[2] = system: 80S14 (p21-deficient) cells; assay: Cytotoxicity assay using isogenic cell lines: IC50 in 80S14 (p21-deficient) cells, SRB; assay type: cell-based, human; details: Homo sapiens
How it was run: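 80S14 (p21-deficient) cells seeded at 12,000 cells/well overnight, then exposed 5 days at 37 °C to serial dilutions (5 pM–50 μM or 170 pg/ml–10 μg/ml). TCA-fixed, sulforhodamine B-stained, absorbance at 560 nm; IC50 taken from cytotoxicity curves versus untreated controls.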

[3] = Homo sapiens, 96 h, Cellular activity in LoVo cell, 4 days incubation, SRB
[4] = 120 h, 80S14 (p21-deficient) cells, 5 days, SRB, class symbols, read-out: IC50 for 80S14

`CC(C)OC(=O)Nc1cc(-c2ccnc3c(C(=O)c4cccs4)cnn23)ccc1F` [Example 347, Isopropyl 2-fluoro-5-[3-(thien-2-ylcarbonyl)pyrazolo[1,5-a]pyrimidin-7-yl]phenylcarbamate] was tested, and the IC50 ([1]; Homo sapiens, LoVo, 96 h) was < 100 nM and the IC50 ([2]; 80S14, 120 h, read-out: IC50 for 80S14 (uM)) was < 1 µM.

Work on `CC(C)OC(=O)Nc1cc(-c2ccnc3c(C(=O)c4cccs4)cnn23)ccc1N(C)C` [Example 348, Isopropyl 2-(dimethylamino)-5-[3-(thien-2-ylcarbonyl)pyrazolo[1,5-a]pyrimidin-7-yl]phenylcarbamate] yielded an IC50 [1, 3] of 100 to 1000 nM and an IC50 [2, 4] of 1 to 10 µM.

In the case of `O=C(c1cccs1)c1cnn2c(-c3cccc(NCc4ccccc4)c3)ccnc12` [Example 349, {7-[3-(Benzylamino)phenyl]pyrazolo[1,5-a]pyrimidin-3-yl}(thien-2-yl)methanone], the IC50 [1, 3] is reported as 100 to 1000 nM and the IC50 [2, 4] is reported as 1 to 10 µM.

Compound `CC(C)CC(=O)Nc1cc(-c2ccnc3c(C(=O)c4cccs4)cnn23)cs1` [Example 351, 3-Methyl-N-{4-[3-(thien-2-ylcarbonyl)pyrazolo[1,5-a]pyrimidin-7-yl]thien-2-yl}butanamide] has an IC50 [1, 3] of 1000 to 20000 nM and an IC50 [2, 4] of 1 to 10 µM.

In the case of `Nc1cc(-c2ccnc3c(C(=O)c4cccs4)cnn23)ccc1F` [Example 352, [7-(3-Amino-4-fluorophenyl)pyrazolo[1,5-a]pyrimidin-3-yl](thien-2-yl)methanone], the IC50 [1, 3] is reported as 1000 to 20000 nM and the IC50 [2, 4] is reported as 1 to 10 µM.

For `O=C(Nc1cccc(-c2ccnc3c(C(=O)c4cccs4)cnn23)c1)NC1CCCCC1` [Example 353, N-Cyclohexyl-N′-{3-[3-(thien-2-ylcarbonyl)pyrazolo[1,5-a]pyrimidin-7-yl]phenyl}urea], the IC50 ([1]; Cellular activity in LoVo cell, 4 days incubation, SRB) was < 100 nM and the IC50 [2, 4] was < 1 µM.

In the case of `O=C(CCC(Cl)(Cl)Cl)Nc1cccc(-c2ccnc3c(C(=O)c4cccs4)cnn23)c1` [Example 354, 4,4,4-Trichloro-N-{3-[3-(thien-2-ylcarbonyl)pyrazolo[1,5-a]pyrimidin-7-yl]phenyl}butanamide], the IC50 [1, 3] is reported as < 100 nM and the IC50 [2, 4] is reported as < 1 µM.

With `CC(C)(C)CC(=O)Nc1cc(-c2ccnc3c(C(=O)c4cccs4)cnn23)ccc1F` [Example 355, N-{2-Fluoro-5-[3-(thien-2-ylcarbonyl)pyrazolo[1,5-a]pyrimidin-7-yl]phenyl}-3,3-dimethylbutanamide] the IC50 [1, 3] was < 100 nM and the IC50 [2, 4] was < 1 µM.

With `CC(CC(=O)Nc1cc(-c2ccnc3c(C(=O)c4cccs4)cnn23)ccc1F)C(F)(F)F` (stereo not shown) [Example 356, 4,4,4-Trifluoro-N-{2-fluoro-5-[3-(thien-2-ylcarbonyl)pyrazolo[1,5-a]pyrimidin-7-yl]phenyl}-3-methylbutanamide] the IC50 [1, 3] was < 100 nM and the IC50 [2, 4] was < 1 µM.

`O=C(c1cccs1)c1cnn2c(-c3ccc(F)c(N(C(=O)OCC(Cl)(Cl)Cl)C(=O)OCC(Cl)(Cl)Cl)c3)ccnc12` [Example 357, bis(2,2,2-Trichloroethyl) 2-fluoro-5-[3-(thien-2-ylcarbonyl)pyrazolo[1,5-a]pyrimidin-7-yl]phenylimidodicarbonate] was tested, and the IC50 [1, 3] was < 100 nM and the IC50 [2, 4] was < 1 µM.

With `O=C(Nc1cccc(-c2ccnc3c(C(=O)c4cccs4)cnn23)c1)c1c(F)cccc1F` [Example 359, 2,6-Difluoro-N-{3-[3-(thien-2-ylcarbonyl)pyrazolo[1,5-a]pyrimidin-7-yl]phenyl}benzamide] the IC50 [1, 3] was < 100 nM and the IC50 [2, 4] was < 1 µM.

`O=C(Nc1cccc(-c2ccnc3c(C(=O)c4cccs4)cnn23)c1)c1ccccn1` [Example 360, N-{3-[3-(Thien-2-ylcarbonyl)pyrazolo[1,5-a]pyrimidin-7-yl]phenyl}pyridine-2-carboxamide] was tested, and the IC50 [1, 3] was < 100 nM and the IC50 [2, 4] was < 1 µM.

`O=C(Nc1ccc(-c2ccnc3c(C(=O)c4cccs4)cnn23)s1)c1ccccc1` [Example 361, N-{5-[3-(Thien-2-ylcarbonyl)pyrazolo[1,5-a]pyrimidin-7-yl]thien-2-yl}benzamide] showed an IC50 [1, 3] of 1000 to 20000 nM and an IC50 [2, 4] of 10 to 50 µM.

`O=C(c1cccs1)c1cnn2c(-c3cccc(NCCc4ccccc4)c3)ccnc12` [Example 362, (7-{3-[(2-Phenylethyl)amino]phenyl}pyrazolo[1,5-a]pyrimidin-3-yl)(thien-2-yl)methanone] gave an IC50 [1, 3] of 1000 to 20000 nM and an IC50 [2, 4] of 10 to 50 µM.

`COc1ccccc1CNc1cccc(-c2ccnc3c(C(=O)c4cccs4)cnn23)c1` [Example 363, (7-{3-[(2-Methoxybenzyl)amino]phenyl}pyrazolo[1,5-a]pyrimidin-3-yl)(thien-2-yl)methanone] gave an IC50 [1, 3] of 100 to 1000 nM and an IC50 [2, 4] of 10 to 50 µM.

`CCCCNC(=S)Nc1cccc(-c2ccnc3c(C(=O)c4cccs4)cnn23)c1` [Example 364, N-Butyl-N′-{3-[3-(thien-2-ylcarbonyl)pyrazolo[1,5-a]pyrimidin-7-yl]phenyl}thiourea] was tested, and the IC50 [1, 3] was < 100 nM and the IC50 [2, 4] was < 1 µM.

In the case of `O=C(c1cccs1)c1cnn2c(-c3cccc(NCc4cccc(Cl)c4)c3)ccnc12` [Example 365, (7-{3-[(3-Chlorobenzyl)amino]phenyl}pyrazolo[1,5-a]pyrimidin-3-yl)(thien-2-yl)methanone], the IC50 [1, 3] is reported as 1000 to 20000 nM and the IC50 [2, 4] is reported as 10 to 50 µM.

Compound `O=C(c1cccs1)c1cnn2c(-c3cccc(NCc4ccc(Cl)cc4)c3)ccnc12` [Example 366, (7-{3-[(4-Chlorobenzyl)amino]phenyl}pyrazolo[1,5-a]pyrimidin-3-yl)(thien-2-yl)methanone] has an IC50 [1, 3] of 1000 to 20000 nM and an IC50 [2, 4] of 10 to 50 µM.

For `O=C(c1cccs1)c1cnn2c(-c3cccc(NCc4ccco4)c3)ccnc12` [Example 367, (7-{3-[(2-Furylmethyl)amino]phenyl}pyrazolo[1,5-a]pyrimidin-3-yl)(thien-2-yl)methanone], the IC50 [1, 3] was 100 to 1000 nM and the IC50 [2, 4] was 1 to 10 µM.

With `O=C(c1cccs1)c1cnn2c(-c3cccc(NCc4ccccc4Cl)c3)ccnc12` [Example 368, (7-{3-[(2-Chlorobenzyl)amino]phenyl}pyrazolo[1,5-a]pyrimidin-3-yl)(thien-2-yl)methanone] the IC50 [1, 3] was 100 to 1000 nM and the IC50 [2, 4] was 1 to 10 µM.

`O=C(c1cccs1)c1cnn2c(-c3cccc(NCc4ccoc4)c3)ccnc12` [Example 369, (7-{3-[(3-Furylmethyl)amino]phenyl}pyrazolo[1,5-a]pyrimidin-3-yl)(thien-2-yl)methanone] gave an IC50 [1, 3] of 100 to 1000 nM and an IC50 [2, 4] of 1 to 10 µM.

`C/C=C/CNc1cccc(-c2ccnc3c(C(=O)c4cccs4)cnn23)c1` [Example 370, (7-{3-[(2E)-But-2-enylamino]phenyl}pyrazolo[1,5-a]pyrimidin-3-yl)(thien-2-yl)methanone] was tested, and the IC50 [1, 3] was < 100 nM and the IC50 [2, 4] was < 1 µM.

With `CC(C)=CCNc1cccc(-c2ccnc3c(C(=O)c4cccs4)cnn23)c1` [Example 371, (7-{3-[(3-Methylbut-2-enyl)amino]phenyl}pyrazolo[1,5-a]pyrimidin-3-yl)(thien-2-yl)methanone] the IC50 [1, 3] was < 100 nM and the IC50 [2, 4] was < 1 µM.

With `CC(C)(C)CCNc1cccc(-c2ccnc3c(C(=O)c4cccs4)cnn23)c1` [Example 372, (7-{3-[(3,3-Dimethylbutyl)amino]phenyl}pyrazolo[1,5-a]pyrimidin-3-yl)(thien-2-yl)methanone] the IC50 [1, 3] was < 100 nM and the IC50 [2, 4] was < 1 µM.

`O=C(c1cccs1)c1cnn2c(-c3ccc(Cl)nc3)ccnc12` [Example 373, [7-(6-Chloropyridin-3-yl)pyrazolo[1,5-a]pyrimidin-3-yl](thien-2-yl)methanone] showed an IC50 [1, 3] of 1000 to 20000 nM and an IC50 [2, 4] of 10 to 50 µM.

For `O=C(Nc1cc(-c2ccnc3c(C(=O)c4cccs4)cnn23)ccc1F)c1c(F)cccc1F` [Example 374, 2,6-Difluoro-N-{2-fluoro-5-[3-(thien-2-ylcarbonyl)pyrazolo[1,5-a]pyrimidin-7-yl]phenyl}benzamide], the IC50 [1, 3] was < 100 nM and the IC50 [2, 4] was < 1 µM.
